pEC50, pIC50: −log10 of the molar value. Read-outs that look alike come from different tables or passages of the source.
Legend:
human MGL (hMGL) = target: T1, human MGL (hMGL) (Homo sapiens, UniProt Q99685); experiment: Fluorescent assay for human MGL inhibition; format: biochemical; conditions: for hMGL inhibition: at concentrations up to 10 μM, known commercial ligands
T1 construct: made in house; host or cells: E. coli (lysate)
T1 sequence (Q99685 1-303): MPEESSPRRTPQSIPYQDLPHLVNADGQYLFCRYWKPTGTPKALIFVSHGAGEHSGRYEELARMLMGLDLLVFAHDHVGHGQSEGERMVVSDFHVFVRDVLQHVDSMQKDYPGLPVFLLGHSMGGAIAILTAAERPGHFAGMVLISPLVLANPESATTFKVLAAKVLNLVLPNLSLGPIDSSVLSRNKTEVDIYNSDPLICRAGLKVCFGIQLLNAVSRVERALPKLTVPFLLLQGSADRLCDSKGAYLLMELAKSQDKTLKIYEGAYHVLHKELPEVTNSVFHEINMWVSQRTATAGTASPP
Description: Fluorescent assay protocol for human MGL. Compound inhibition of hMGL activity was assessed by a fluorometric assay. The assay was carried out in a 96-well plate format and hMGL was monitored by the hydrolysis of the substrate […] or the substrate valeroyl-7-hydroxy-6-methoxy-4-methylcoumarin ester (VHMMCE) to form the fluorescent product, coumarin. Briefly, various concentrations of each compound were preincubated with hMGL (175 ng of total protein in E. coli lysate containing hMGL) for 15 minutes at room temperature. Upon the addition of the substrate, the reaction was incubated at […] for 120 minutes; fluorescence readings were taken every 15 minutes at 360 nm/460 nm (2excitation/λmission) using a Synergy HT Plate Reader (Bio-Tek, Winooski, Vt.). Under the incubation conditions, negligible substrate hydrolysis was observed. External standards were used to convert relative fluorescence units to the amount of 4-methylcoumarin formed. hMGL assays were performed in triplicate for each inhibitor concentration, and IC50 values were determined using Prizm software (FIGS. 1A-1G).

human CB1 (hCB1) = human CB1 (hCB1) (Homo sapiens, UniProt P21554); experiment: Competition binding assay, [3H]CP55,940 displacement, hCB1 HEK293 membranes; conditions: up to 100 nM; [3H]CP55,940 0.7 nM; 37 °C, 60 min
Description: Cell membrane preparation. Fresh or frozen HEK293 cell pellets (2×10^8 cells expressing human CB1 (hCB1) or rat CB1 (rCB1)) were resuspended in 5 ml of TME [25 mM Tris, 5 mM MgCl2, 1 mM EDTA pH 7.4] supplemented with 0.5% protease inhibitor cocktail (Sigma, St Louis, MO, USA). Cells were lysed under nitrogen cavitation for 30 min at 1000 psi on ice, centrifuged at 1000 g for 10 min, and the supernatant was collected. The pellet was washed three times with 10 ml of TME containing protease inhibitors and the combined supernatant was centrifuged at 100,000 g for 45 min at 4 °C. The resultant membrane pellet was used immediately or stored at −80 °C. Protein concentration for the resulting membrane fraction was obtained using Bradford Assay.
Competition Binding Assay. Competition binding assays were performed in a 96-well format. Assays were carried out using [3H] CP55,940 and Tris binding buffer (50 mM Tris-HCl, 50 mM Tris-base, 0.1% BSA, pH 7.4), up to a total assay volume of 500 μL. The concentration of [^3H]CP55,940 used in our displacement assays was 0.7 nM. […] Radioactivity was quantified by liquid scintillation spectrometry. […] Ki values were determined by fitting the data to non-linear regression curve using Graph Pad Prism software.

hCB1 receptors = target: T2, hCB1 receptors (Homo sapiens, UniProt P21554); experiment: CB1 cAMP assay (inhibition of forskolin-stimulated cAMP accumulation); format: cell-based; conditions: for pEC50: EC50 of 2-AG + Compound (1 μM), 2-AG in presence of 1 μM compound, forskolin 2 μM, HEK293 and/or CHO hCB1
T2 construct: expressed in transfected cells
Description: CB1 cAMP assays. Compounds are evaluated for their ability to modulate the actions of orthosteric ligands at CB1 receptor sites. HEK293 and/or CHO cells stably expressing hCB1 receptors were used for the studies. The CAMP assay was carried out using Perkin Elmer's Lance Ultra cAMP kit following the protocol as described in J Biomol Screen 1999, 4, (6), 303-308. The assays are carried out in a 384-well format using 1000-1500 cells/well. The cells are harvested with non-enzymatic cell dissociation reagent Versene, washed once with Hanks' Balanced Salt Solution (HBSS), and resuspended in the stimulation buffer. […] After 30 minutes of stimulation at room temperature, the Eu-CAMP tracer working solution (5 μL) and Ulight-anti-cAMP working solution (5 μL) are added to the plate and incubated at room temperature for 60 minutes. The data are collected via PerkinElmer Envision plate reader. The EC50 values are determined by nonlinear regression analysis using GraphPad Prism software (FIGS. 2A-2H).

[1] = Kinetic aqueous solubility by laser-based nephelometry; format: physicochemical; conditions: PBS buffer pH 7.4, 120 min, room temperature; relative to ZCZ011
Description: Aqueous solubility assays. The kinetic aqueous solubility of the compounds is determined using laser-based nephelometry. Linear serial dilutions of each compound are prepared in PBS buffer (pH=7.4) from DMSO stock solution (10 mM) in a 384-well plate. The compound solutions are mixed and incubated for 120 minutes at room temperature, followed by approximating the precipitation points for each compound using light scattering (laser-based BMG Labtech NEPHELOstar PLUS microplate nephelometer). In some aspects, the final solutions may contain 0 mM, 55 mM, 135 mM, or 500 mM of mannitol.

[2] = hMGL in E. coli lysate, 15 min preincubation, AHMMCE or VHMMCE substrate, read-out: MGL inhibition IC50

T2 sequence (P21554 whole entry): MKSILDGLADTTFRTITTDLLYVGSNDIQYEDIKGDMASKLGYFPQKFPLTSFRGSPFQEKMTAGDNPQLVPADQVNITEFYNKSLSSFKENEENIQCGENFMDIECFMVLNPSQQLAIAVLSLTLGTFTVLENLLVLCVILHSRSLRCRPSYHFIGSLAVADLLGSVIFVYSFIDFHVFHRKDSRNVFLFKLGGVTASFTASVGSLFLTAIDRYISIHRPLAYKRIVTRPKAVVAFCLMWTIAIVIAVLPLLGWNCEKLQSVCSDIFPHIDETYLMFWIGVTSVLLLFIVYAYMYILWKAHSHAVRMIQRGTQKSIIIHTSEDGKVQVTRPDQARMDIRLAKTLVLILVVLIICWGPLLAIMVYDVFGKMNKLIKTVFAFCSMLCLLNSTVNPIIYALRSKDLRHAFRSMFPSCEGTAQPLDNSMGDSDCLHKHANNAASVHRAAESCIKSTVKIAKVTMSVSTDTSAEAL
Chain of human CB1 (hCB1) (P21554 whole entry): as above

O=[N+]([O-])CC(c1cccc(B(O)O)c1)c1c(-c2ccccc2)[nH]c2ccccc12 (stereo not drawn) [Compound 4, (3-(2-nitro-1-(2-phenyl-1H-indol-3-yl)ethyl)phenyl)boronic acid]
pIC50 (human MGL (hMGL); [2]): 6.01
competition with CP-55,940 (human CB1 (hCB1)): do not compete with CP-55,940
pEC50 (hCB1 receptors): 7.39

O=[N+]([O-])CC(c1ccc(B(O)O)cc1)c1c(-c2ccc(N=C=S)cc2)[nH]c2ccccc12 (stereo not drawn) [Compound 6, (4-(1-(2-(4-isothiocyanatophenyl)-1H-indol-3-yl)-2-nitroethyl)phenyl)boronic acid]
pEC50 (hCB1 receptors): 7.24

O=[N+]([O-])CC(c1ccccc1)c1c(-c2ccc(S(=O)(=O)F)cc2)[nH]c2ccccc12 (stereo not drawn) [Compound 9, 4-(3-(2-nitro-1-phenylethyl)-1H-indol-2-yl)benzenesulfonyl fluoride]
pIC50 (human MGL (hMGL)): 7.49

O=[N+]([O-])CC(c1ccc(B(O)O)cc1)c1c(-c2ccccc2)[nH]c2ccccc12 (stereo not drawn) [Compound 1, (4-(2-nitro-1-(2-phenyl-1H-indol-3-yl)ethyl)phenyl)boronic acid]
aqueous solubility compared to ZCZ011 [1]: > 100 fold
pIC50 (human MGL (hMGL); [2]): 7.20
competition with CP-55,940 (human CB1 (hCB1)): do not compete with CP-55,940
pEC50 (hCB1 receptors): 6.99

O=[N+]([O-])CC(c1ccc(N=C=S)cc1)c1c(-c2ccccc2)[nH]c2ccccc12 (stereo not drawn) [Compound 10, 3-(1-(4-isothiocyanatophenyl)-2-nitroethyl)-2-phenyl-1H-indole]
pIC50 (human MGL (hMGL); [2]): 5.94

O=[N+]([O-])C[C@H](c1ccc(B(O)O)cc1)c1c(-c2ccccc2)[nH]c2ccccc12 (single isomer, unassigned) [Compound 2]
pIC50 (human MGL (hMGL); [2]): 6.57
pEC50 (hCB1 receptors): 7.29

O=[N+]([O-])CC(c1ccccc1)c1c(-c2ccccc2)[nH]c2ccccc12 (stereo not drawn) [GAT211, 3-(2-nitro-1-phenylethyl)-2-phenyl-1H-indole, reference compound]
hMGL inhibition (human MGL (hMGL)): did not show any hMGL inhibition at concentrations up to 10 μM

O=[N+]([O-])CC(c1ccccc1)c1c(-c2ccc(B(O)O)cc2)[nH]c2ccccc12 (stereo not drawn) [Compound 5, (4-(3-(2-nitro-1-phenylethyl)-1H-indol-2-yl)phenyl)boronic acid]
pEC50 (hCB1 receptors): 7.24

O=[N+]([O-])CC(c1ccccc1)c1c(-c2ccccc2)[nH]c2cc(B(O)O)ccc12 (stereo not drawn) [Compound 8, (3-(2-nitro-1-phenylethyl)-2-phenyl-1H-indol-6-yl)boronic acid]
pIC50 (human MGL (hMGL); [2]): 7.33

Cc1ccc2c(C(C[N+](=O)[O-])c3cccs3)c(-c3ccccc3)[nH]c2c1 (stereo not drawn) [ZCZ011, 6-methyl-3-(2-nitro-1-(thiophen-2-yl)ethyl)-2-phenyl-1H-indole, reference compound]
hMGL inhibition (human MGL (hMGL)): did not show any hMGL inhibition at concentrations up to 10 μM

O=[N+]([O-])C[C@@H](c1ccc(B(O)O)cc1)c1c(-c2ccccc2)[nH]c2ccccc12 (single isomer, unassigned) [Compound 3]
pIC50 (human MGL (hMGL); [2]): 7.23
pEC50 (hCB1 receptors): 7.43
allosteric modulation of 2-AG and CP-55,940 at CB1 (hCB1 receptors; in words): positive allosteric modulator of both 2-AG and CP-55,940
increase of potency of 2-AG at CB1 (hCB1 receptors; orthosteric ligand 2-AG, positive allosteric modulator): ~ 2 fold
increase of potency of CP-55,940 at CB1 (hCB1 receptors; orthosteric ligand CP-55,940, positive allosteric modulator): ~ 2 fold

Reference: patent publication US20260364098A1, “HETEROARYL COMPOUNDS AS ENDOCANNABINOID SYSTEM MODULATORS AND USES THEREOF” (Northeastern University, priority 2023, published 2026)
